Measured values as given in US20220213060A1, “Crystal Form of Quinazolinone Compound and Preparation Method Therefor” (Luoxin Healthcare Science and Technology Development …, priority 2019, published 2022).
Read-outs that look alike come from different tables or passages of the source.

Assays:
[1] = Solid stability test of crystal form A (influencing factors and accelerated conditions, HPLC/XRPD); format: physicochemical
Protocol: 1.5 High Performance Liquid Chromatograph Method
Sample concentration: 0.5 mg/mL
The stability of the crystal form A of the compound represented by formula (I) was investigated according to the Guideline for Stability Testing of APIs and Formulations (Chinese Pharmacopoeia 2015 Edition IV General Rule 9001).
5 mg of the crystal form A of the compound represented by formula (I) was weighed separately, placed in a dry and clean glass bottle, in duplicate, spread into a thin layer, as a formal test sample, the two samples were placed under the test conditions of influencing factors (60° C., 92.5% relative humidity) and accelerated conditions (30° C./65% relative humidity, 40° C./75% relative humidity and 60° C./75% relative humidity), the samples were fully exposed, covered with aluminum foil and pierced with small holes. Sampling and analysis were performed on day 5, day 10, and 1 month. Samples placed under illumination (total illumination 1200000 Lux·hr, near ultraviolet 200 w·hr/m^2) were completely exposed at room temperature.

[2] = system: p-AKT; assay: Western blot analysis of p-AKT protein expression level in BT474 tumor tissue samples; format: in vivo; settings: BT-474 nude mouse transplanted tumor model, 0.5 h, 4 h, 24 h after administration
Protocol: 7.1 Protein extraction and quantification
1) Quick-frozen tissue samples were taken out from the refrigerator at −80° C.
2) Operating on dry ice, cutting part of the tissues (about 30 mg), putting them into a 2 mL centrifuge tube with steel balls, and adding 500 μL of cell lysate RIPA (1% protease inhibitor and phosphatase inhibitor had been newly added).
3) Tissue was broken for 5 minutes using the highest frequency of Tissuelyser LT.
4) The tissue lysate was placed on ice for 30 minutes.
5) Centrifuging at 12,000 rpm at 4° C. for 10 minutes and removing the supernatant into a new 1.5 mL centrifuge tube.
6) The protein was quantified by BCA quantitative kit.
7) According to the quantitative results, the protein sample for loading was prepared, the protein concentration of the sample was unified to 2 μg/μL, LDS loading buffer (4×) and sample reducing agent (10×) were added, and the sample was heated at a constant temperature of 100° C. for 10 minutes.
8) Western blotting, or storing the denatured samples in a refrigerator at −80° C.
1) The sample for loading was thawed. […]
5) After the membrane transfer was finished, the membrane was cut according to the molecular weight of the protein to be detected, the membrane was washed with 1×TBST for 3 times and 5 minutes each time, and was shaken at room temperature. […]
13) Chemiluminescence was detected and photographed on the Tanon 5200 multi machine.

[3] = Beagle dog absorption test (pharmacokinetics); format: in vivo, Beagle dogs
Protocol: Beagle dogs were given the crystal form A of the compound represented by formula (I) by single or multiple oral administration and single intravenous injection respectively, with 6 dogs in each group, half male and half female. The single oral doses were 0.3, land 3 mg/kg respectively; the multiple doses were 1 mg/kg, once a day for 7 consecutive days; the single intravenous dose was 0.3 mg/kg. According to the drug plasma concentration-time curve, the pharmacokinetic parameters were calculated, the results are shown in Table 15. The vehicle for drug preparation in group 1 was 5% HP-beta-CD, 5% solutol, pH=8 aqueous solution, the vehicles for groups 2, 3, 4 were 0.5% MC, 0.2% Tween80 aqueous solution.

[4] = 30° C., relative humidity 65%, open, 1 month
[5] = 30° C., relative humidity 65%, open, Day 10
[6] = 40° C., relative humidity 75%, open, 1 month
[7] = 40° C., relative humidity 75%, open, Day 10
[8] = 60° C., relative humidity 75%, open, 1 month
[9] = 60° C., relative humidity 75%, open, Day 10
[10] = High humidity (25° C./92.5% relative humidity, open), Day 5
[11] = High humidity (25° C./92.5% relative humidity, open), Day 10
[12] = High temperature (60° C., open), Day 5
[13] = High temperature (60° C., open), Day 10
[14] = Illumination (total illumination 1.2 × 106 Lux · hr/near ultraviolet 200 w · hr/m^2, open), Day 10
[15] = In the absence of light, Day 10
[16] = both sexes, beagle, dog, plasma, po, 0.3 mg/kg, male and female Beagle dogs, single
[17] = both sexes, dog, plasma, iv, male and female Beagle dogs, vein, 0.3 mg/kg, single
[18] = both sexes, dog, plasma, male and female Beagle dogs, oral, 0.3 mg/kg, single
[19] = both sexes, dog, plasma, male and female Beagle dogs, oral, 1 mg/kg once a day, day 7
[20] = both sexes, dog, plasma, male and female Beagle dogs, oral, 1 mg/kg, day 1
[21] = both sexes, dog, plasma, male and female Beagle dogs, oral, 3 mg/kg, single
[22] = male and female beagle dogs, oral, 1 mg/kg for 7 consecutive days, 7 days after the administration
[23] = male and female beagle dogs, oral, 1 mg/kg, 1 day after the administration

Content of the crystal form A of the compound represented by formula (I) (%) [1, 4]: 101.64% | Total impurity content (%) [1, 4]: 0.14% | Content of the crystal form A of the compound represented by formula (I) (%) [1, 5]: 104.28% | Total impurity content (%) [1, 5]: 0.14% | Content of the crystal form A of the compound represented by formula (I) (%) [1, 6]: 103.86% | Total impurity content (%) [1, 6]: 0.16% | Content of the crystal form A of the compound represented by formula (I) (%) [1, 7]: 103.79% | Total impurity content (%) [1, 7]: 0.15% | Content of the crystal form A of the compound represented by formula (I) (%) [1, 8]: 103.30% | Total impurity content (%) [1, 8]: 0.14% | Content of the crystal form A of the compound represented by formula (I) (%) [1, 9]: 103.63% | Total impurity content (%) [1, 9]: 0.14% | Content of the crystal form A of the compound represented by formula (I) (%) ([1]; Day 0): 103.08% | Total impurity content (%) ([1]; Day 0): 0.14% | Content of the crystal form A of the compound represented by formula (I) (%) [1, 10]: 103.08% | Total impurity content (%) [1, 10]: 0.14% | Content of the crystal form A of the compound represented by formula (I) (%) [1, 11]: 103.95% | Total impurity content (%) [1, 11]: 0.14% | Content of the crystal form A of the compound represented by formula (I) (%) [1, 12]: 104.39% | Total impurity content (%) [1, 12]: 0.14% | Content of the crystal form A of the compound represented by formula (I) (%) [1, 13]: 102.00% | Total impurity content (%) [1, 13]: 0.14% | Content of the crystal form A of the compound represented by formula (I) (%) [1, 14]: 103.04% | Total impurity content (%) [1, 14]: 0.14% | Content of the crystal form A of the compound represented by formula (I) (%) [1, 15]: 102.57% | Total impurity content (%) [1, 15]: 0.15% | Stability (conclusion of the solid stability test) ([1]; all test conditions of Table 7): good stability | AUC(0-t) ([3]; both sexes, beagle, dog, plasma, iv, 0.3 mg/kg, male and female Beagle dogs, vein, single): 1.47 ± 0.353 µM·h | AUC(0-t) [3, 16]: 1.29 ± 0.715 µM·h | bioavailability [3, 16]: 87.8% | AUC(0-t) ([3]; both sexes, beagle, dog, plasma, po, 1 mg/kg, male and female Beagle dogs, oral, 1 mg/kg once a day, day 7): 5.88 µM·h | AUC(0-t) ([3]; both sexes, beagle, dog, plasma, po, 1 mg/kg, male and female Beagle dogs, oral, 1 mg/kg, day 1): 4.98 ± 0.946 µM·h | AUC(0-t) ([3]; both sexes, beagle, dog, plasma, po, 3 mg/kg, male and female Beagle dogs, single): 14.8 ± 2.51 µM·h | C0 [3, 17]: 512 nM | clearance [3, 17]: 6.18 ± 1.49 mL/min/kg | half-life [3, 17]: 6.32 ± 1.62 h | Vd ([3]; both sexes, dog, plasma, iv, male and female Beagle dogs, vein, 0.3 mg/kg, single, read-out: Vdss): 2.47 ± 0.391 L/kg | Tmax [3, 18]: 2 ± 1.1 h | half-life [3, 18]: 6.92 ± 3.16 h | Cmax ([3]; both sexes, dog, plasma, male and female Beagle dogs, oral, 0.3 mg/kg, single, read-out: Cmax): 158 ± 68.4 nM | Cmax at 7 days [3, 19]: 850 nM | Tmax at 7 days [3, 19]: 1.33 h | half-life at 7 days [3, 19]: 5.18 ± 0.487 h | Tmax [3, 20]: 1.67 ± 0.516 h | half-life [3, 20]: 5 ± 1.44 h | Cmax ([3]; both sexes, dog, plasma, male and female Beagle dogs, oral, 1 mg/kg, day 1, read-out: Cmax): 656 ± 30.7 nM | Tmax [3, 21]: 3.08 ± 1.5 h | half-life [3, 21]: 6.55 ± 1.76 h | Cmax ([3]; both sexes, dog, plasma, male and female Beagle dogs, oral, 3 mg/kg, single, read-out: Cmax): 1880 ± 274 nM | AUC0-last [3, 22]: 5.88 ± 0.697 µM·h | Cmax [3, 22]: 850±106 nm | AUC0-last [3, 23]: 4.98 ± 0.946 µM·h | Cmax [3, 23]: 656±30.7 nm
Structure (SMILES): CNC(=O)[C@H](C)Cn1cnc2ccc(-c3cnc(OC)c(NS(=O)(=O)c4ccc(F)cc4F)c3)cc2c1=O
Akt phosphorylation level downstream of PI3K in tumor tissue (Western blot, FIG. 10) [2]: significantly inhibit
